Molecules are shown by their SMILES.

The nature of data set [1]: Stability test (purity and XRPD pattern after 30 days storage). The class given is physicochemical. The note with it: for stability compared to the amorphous form: conclusion from Table 6. On the procedure:
X-ray powder diffraction instrument and test conditions involved in the present disclosure: the model of the X-ray diffraction instrument was Rigaku MiniFlex-600 Cu target; the operation method included a scanning speed of 10°/min and scanning step width of 0.01°.
High-performance liquid chromatography (HPLC) test conditions involved in the present disclosure: the model of the liquid chromatograph was Agilent 1260; the chromatographic column was Welch XB C-18 250 mm*4.6 mm 3 μm; the detection wavelength was 260 nm; and the column temperature was 40° C.
The amorphous form of compound represented by Formula I prepared in the described preparation examples, the crystal form A of the compound represented by Formula I prepared in Example 1, the crystal form B of the compound represented by Formula I prepared in Example 9, the crystal form C of the compound represented by Formula I prepared in Example 12, the crystal form D of the compound represented by Formula I prepared in Example 17, and the crystal form E of the compound represented by Formula I prepared in Example 20 were placed under various conditions: 75% RH, 92.5% RH, 40° C., 60° C., and illumination for 30 days, the X-ray powder diffraction pattern and purity of each crystal form were determined, and the specific results are shown in Table 6.

The nature of another data set: Hygroscopicity test. The class given is physicochemical. The note with it: for hygroscopicity: 75% RH and 25° C. for 24 h; for hygroscopicity compared to the amorphous form: conclusion from Table 9. An excerpt:
(§1) The amorphous form of the compound represented by Formula I prepared in Preparation Example, the crystal form A of the compound represented by Formula I prepared in Example 1, the crystal form B of the compound represented by Formula I prepared in Example 9, the crystal form C of the compound represented by Formula I prepared in Example 12, the crystal form D of the compound represented by Formula I prepared in Example 17, and the crystal form E of the compound represented by Formula I prepared in Example 20 were placed in an environment of 75% RH and 25° C. for 24 h and then each was weighed to calculate the hygroscopicity.

Data set [2] is described as follows: Fluidity test (angle of repose). It counts as physicochemical. Conditions: for fluidity compared to the amorphous form: conclusion from Table 8.
Text: as §1, with “measured for angle of repose, and the specific results are shown” for “placed”, “Table 8 below: […]” for “an environment of 75% RH and 25° C. for 24 h and then each was weighed to calculate the hygroscopicity.”

The next data set is described as follows: Granularity test. The class given is physicochemical.
Text: as §1, with “measured for granularity, and the specific results are shown” for “placed”, “Table 7 below: […]” for “an environment of 75% RH and 25° C. for 24 h and then each was weighed to calculate the hygroscopicity.”

The target of the next data set is RET kinase (Homo sapiens, UniProt P07949). Conditions: stated for WO2020/207419A1; cited from earlier work.
Chain of RET kinase (P07949 29-1114): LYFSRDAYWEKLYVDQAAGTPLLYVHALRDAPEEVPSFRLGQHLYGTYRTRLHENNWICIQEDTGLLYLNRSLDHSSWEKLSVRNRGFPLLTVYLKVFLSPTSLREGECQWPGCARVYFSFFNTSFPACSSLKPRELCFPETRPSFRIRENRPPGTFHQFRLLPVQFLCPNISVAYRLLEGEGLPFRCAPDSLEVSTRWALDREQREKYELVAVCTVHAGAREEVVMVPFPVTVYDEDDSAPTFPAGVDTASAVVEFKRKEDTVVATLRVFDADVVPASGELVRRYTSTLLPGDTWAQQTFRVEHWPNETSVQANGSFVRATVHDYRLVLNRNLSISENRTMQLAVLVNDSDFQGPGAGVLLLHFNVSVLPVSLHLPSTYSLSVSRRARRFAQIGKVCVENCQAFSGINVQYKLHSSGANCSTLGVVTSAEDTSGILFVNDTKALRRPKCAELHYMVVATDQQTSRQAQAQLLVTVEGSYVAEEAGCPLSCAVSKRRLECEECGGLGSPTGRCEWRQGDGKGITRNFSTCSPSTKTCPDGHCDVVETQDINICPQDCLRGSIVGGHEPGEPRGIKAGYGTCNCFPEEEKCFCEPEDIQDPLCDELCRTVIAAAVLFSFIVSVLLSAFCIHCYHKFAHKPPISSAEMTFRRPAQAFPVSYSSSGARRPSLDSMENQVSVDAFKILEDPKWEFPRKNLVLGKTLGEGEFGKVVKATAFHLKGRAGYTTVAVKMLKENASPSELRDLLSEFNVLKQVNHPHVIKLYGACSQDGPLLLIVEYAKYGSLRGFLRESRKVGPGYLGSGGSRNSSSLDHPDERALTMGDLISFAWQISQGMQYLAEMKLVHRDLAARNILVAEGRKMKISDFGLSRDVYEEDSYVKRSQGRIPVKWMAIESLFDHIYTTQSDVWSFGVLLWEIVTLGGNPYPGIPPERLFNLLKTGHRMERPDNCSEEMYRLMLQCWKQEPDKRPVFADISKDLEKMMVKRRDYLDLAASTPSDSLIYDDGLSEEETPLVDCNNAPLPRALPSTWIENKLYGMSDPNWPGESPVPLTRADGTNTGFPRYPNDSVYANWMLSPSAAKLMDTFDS

Regarding `Cc1cc(Nc2cc(C)[nH]n2)nc(N2CC3CCC(C2)N3C(=O)c2ccc(-n3cc(F)cn3)nn2)n1` [crystal form D, (6-(4-fluoro-1H-pyrazol-1-yl)pyridazin-3-yl)(3-(4-methyl-6-((5-methyl-1H-pyrazol-3-yl)amino)pyrimidin-2-yl)-3,8-diazabicyclo[3.2.1]octan-8-yl) methanone], the “stability compared to the amorphous form” value in data set [1] was “better stability”. The purity stood at 99.60 in data set [1] (day 0); 99.42 in data set [1] (day 30 at 40° C.); 99.33 in data set [1] (day 30 at 60° C.); 99.35 in data set [1] (day 30 under 75% RH); 99.01 in data set [1] (day 30 under 92.5% RH); 98.23 in data set [1] (day 30 under illumination). The hygroscopicity in “Hygroscopicity test” is 0.08%. The “hygroscopicity compared to the amorphous form” value in the data set “Hygroscopicity test” is recorded as “significantly better”. Also, the “fluidity compared to the amorphous form” value in data set [2] was “significantly superior”. For the same molecule, the angle of repose in data set [2] (measurement 1) worked out at 33.0°; in data set [2] (measurement 2), 33.8°; in data set [2] (measurement 3), 33.3°. Also, in the data set “Granularity test”, the “D50 (granularity)” value came to 33.64 μm. Besides, in “Granularity test”, the “D90 (granularity)” value stood at 83.56 μm.

With `Cc1cc(Nc2cc(C)[nH]n2)nc(N2CC3CCC(C2)N3C(=O)c2ccc(-n3cc(F)cn3)nn2)n1` [crystal form C, (6-(4-fluoro-1H-pyrazol-1-yl)pyridazin-3-yl)(3-(4-methyl-6-((5-methyl-1H-pyrazol-3-yl)amino)pyrimidin-2-yl)-3,8-diazabicyclo[3.2.1]octan-8-yl) methanone], in data set [1], the “stability compared to the amorphous form” value was “better stability”. Moreover, the purity in data set [1] (day 0) came to 99.75; in data set [1] (day 30 at 40° C.), 99.51; in data set [1] (day 30 at 60° C.), 99.38; in data set [1] (day 30 under 75% RH), 99.45; in data set [1] (day 30 under 92.5% RH) it was 99.08; in data set [1] (day 30 under illumination), 98.22. In “Hygroscopicity test”, this molecule came in with a hygroscopicity of 0.06%. For the same molecule, the “hygroscopicity compared to the amorphous form” value in “Hygroscopicity test” is “significantly better”. Moreover, the “fluidity compared to the amorphous form” value in data set [2] is reported as “significantly superior”. The angle of repose is 33.8° in data set [2] (measurement 1), 33.9° in data set [2] (measurement 2) and 33.2.° in data set [2] (measurement 3). Moreover, in “Granularity test”, the “D50 (granularity)” value was 31.58 μm. Moreover, in “Granularity test”, the “D90 (granularity)” value is 79.47 μm.

Take `Cc1cc(Nc2cc(C)[nH]n2)nc(N2CC3CCC(C2)N3C(=O)c2ccc(-n3cc(F)cn3)nn2)n1` [amorphous form, (6-(4-fluoro-1H-pyrazol-1-yl)pyridazin-3-yl)(3-(4-methyl-6-((5-methyl-1H-pyrazol-3-yl)amino)pyrimidin-2-yl) 3,8-diazabicyclo[3.2.1]octane-8-yl) methanone, reference compound]: the purity in data set [1] (day 0) is 96.77; in data set [1] (day 30 at 40° C.), 96.17 (its; in data set [1] (day 30 at 60° C.), 95.98 (its; in data set [1] (day 30 under 75% RH), 95.94; in data set [1] (day 30 under 92.5% RH), 95.23; in data set [1] (day 30 under illumination) it was 94.37. The “X-ray powder diffraction pattern after storage” value in data set [1] (day 30 at 40° C.) and in data set [1] (day 30 at 60° C.) was “changes)” in each case. The hygroscopicity in “Hygroscopicity test” turned out to be 0.45%. The figures for the angle of repose in data set [2] (measurement 1), in data set [2] (measurement 2) and in data set [2] (measurement 3) were 43.8°, 44.3° and 43.4°, respectively. For the same molecule, the “D50 (granularity)” value in the data set “Granularity test” stood at 3.52 μm. For the same molecule, the “D90 (granularity)” value in “Granularity test” worked out at 18.45 μm. In addition, in “Granularity test” (conclusion from Table 7), the “granularity compared to crystal forms A, B, C, D and E” value is listed as “significantly smaller”. Besides, in the data set “Granularity test” (versus crystal forms A-E), the “D50 of amorphous form relative to the crystal form D50” value is “not more than 12%”. Moreover, the “D90 of amorphous form relative to the crystal form D90” value in the data set “Granularity test” (versus crystal forms A-E) is recorded as “not more than 25%”.

Turning to `Cc1cc(Nc2cc(C)[nH]n2)nc(N2CC3CCC(C2)N3C(=O)c2ccc(-n3cc(F)cn3)nn2)n1` [crystal form E, (6-(4-fluoro-1H-pyrazol-1-yl)pyridazin-3-yl)(3-(4-methyl-6-((5-methyl-1H-pyrazol-3-yl)amino)pyrimidin-2-yl)-3,8-diazabicyclo[3.2.1]octan-8-yl) methanone], the “stability compared to the amorphous form” value in data set [1] was “better stability”. For the same molecule, the purity in data set [1] (day 0) was found to be 99.76; in data set [1] (day 30 at 40° C.), 99.70; in data set [1] (day 30 at 60° C.) it was 99.65; in data set [1] (day 30 under 75% RH), 99.60; in data set [1] (day 30 under 92.5% RH), 99.50; in data set [1] (day 30 under illumination), 98.65. The molecule further yielded a hygroscopicity in the data set “Hygroscopicity test” of 0.05%. In addition, in the data set “Hygroscopicity test”, the “hygroscopicity compared to the amorphous form” value is listed as “significantly better”. In addition, the “fluidity compared to the amorphous form” value in data set [2] is on record as “significantly superior”. Further, the results for the angle of repose in data set [2] (measurement 1), in data set [2] (measurement 2) and in data set [2] (measurement 3) were 34.2°, 35.1° and 34.8°, respectively. Besides, the “D50 (granularity)” value in “Granularity test” is recorded as 30.36 μm. Moreover, in “Granularity test”, the “D90 (granularity)” value stood at 75.89 μm.

Turning to `Cc1cc(Nc2cc(C)[nH]n2)nc(N2CC3CCC(C2)N3C(=O)c2ccc(-n3cc(F)cn3)nn2)n1` [compound represented by formula I, (6-(4-fluoro-1H-pyrazol-1-yl)pyridazin-3-yl)(3-(4-methyl-6-((5-methyl-1H-pyrazol-3-yl)amino)pyrimidin-2-yl)-3,8-diazabicyclo[3.2.1]octan-8-yl) methanone], the “effect of inhibiting RET kinase” value at RET kinase is recorded as “good effect of inhibiting RET kinase”.

Consider `Cc1cc(Nc2cc(C)[nH]n2)nc(N2CC3CCC(C2)N3C(=O)c2ccc(-n3cc(F)cn3)nn2)n1` [crystal form B, (6-(4-fluoro-1H-pyrazol-1-yl)pyridazin-3-yl)(3-(4-methyl-6-((5-methyl-1H-pyrazol-3-yl)amino)pyrimidin-2-yl)-3,8-diazabicyclo[3.2.1]octan-8-yl) methanone], for which the “stability compared to the amorphous form” value in data set [1] is listed as “better stability”. For the same molecule, the purity came to 99.80 in data set [1] (day 0); 99.68 in data set [1] (day 30 at 40° C.); 99.62 in data set [1] (day 30 at 60° C.); 99.52 in data set [1] (day 30 under 75% RH); 99.23 in data set [1] (day 30 under 92.5% RH); 98.56 in data set [1] (day 30 under illumination). Besides, the hygroscopicity in the data set “Hygroscopicity test” was 0.05%. The “hygroscopicity compared to the amorphous form” value in the data set “Hygroscopicity test” is recorded as “significantly better”. Besides, the “fluidity compared to the amorphous form” value in data set [2] is listed as “significantly superior”. Further, the angle of repose in data set [2] (measurement 1) is 33.4°; in data set [2] (measurement 2), 34.1°; in data set [2] (measurement 3), 34.2°. Further, the “D50 (granularity)” value in “Granularity test” came out at 32.53 μm. Moreover, the “D90 (granularity)” value in “Granularity test” is 86.77 μm.

`Cc1cc(Nc2cc(C)[nH]n2)nc(N2CC3CCC(C2)N3C(=O)c2ccc(-n3cc(F)cn3)nn2)n1` [crystal form A, (6-(4-fluoro-1H-pyrazol-1-yl)pyridazin-3-yl)(3-(4-methyl-6-((5-methyl-1H-pyrazol-3-yl)amino)pyrimidin-2-yl)-3,8-diazabicyclo[3.2.1]octan-8-yl) methanone]: the “stability compared to the amorphous form” value in data set [1] is “better stability”. Also, the purity was 99.85 in data set [1] (day 0); 99.80 in data set [1] (day 30 at 40° C.); 99.77 in data set [1] (day 30 at 60° C.); 99.67 in data set [1] (day 30 under 75% RH); 99.48 in data set [1] (day 30 under 92.5% RH); 98.88 in data set [1] (day 30 under illumination). The molecule further had a hygroscopicity in the data set “Hygroscopicity test” of 0.02%. Further, the “hygroscopicity compared to the amorphous form” value in the data set “Hygroscopicity test” was “significantly better”. Moreover, in data set [2], the “fluidity compared to the amorphous form” value is “significantly superior”. The angle of repose in data set [2] (measurement 1) stood at 32.5°; in data set [2] (measurement 2) it was 31.9°; in data set [2] (measurement 3), 32.2°. Besides, in the data set “Granularity test”, the “D50 (granularity)” value is listed as 38.62 μm. For the same molecule, the “D90 (granularity)” value in “Granularity test” is on record as 95.11 μm.

(Values after patent publication US20260258020A1, “CRYSTAL FORM OF PIPERAZINE AMIDE DERIVATIVE, PREPARATION METHOD THEREFOR AND USE THEREOF” (ZHEJIANG HISUN PHARMACEUTICAL CO., LTD., priority 2022, published 2026).)
